Tested on: MV-4-11 cells
Assay: Gene expression microarray analysis (Affymetrix PrimeView) and GSEA
Format: cell-based, human
Parameters: RFU PODN (11730768_x_at) / Fold change /veh PODN (11730768_x_at) / RFU LINC00158 (11744669_a_at) / Fold change /veh LINC00158 (11744669_a_at) / RFU DUSP10 (11751237_a_at) / Fold change /veh DUSP10 (11751237_a_at) / RFU ID3 (11757404_x_at) / Fold change /veh ID3 (11757404_x_at) / RFU PLEKHG5 (11737974_s_at) / Fold change /veh PLEKHG5 (11737974_s_at) / RFU LRRC4B (11730491_at) / Fold change /veh LRRC4B (11730491_at) / RFU GIMAP4 (11747438_a_at) / Fold change /veh GIMAP4 (11747438_a_at) / RFU KRT8 (11758183_x_at) / Fold change /veh KRT8 (11758183_x_at) / RFU CNN1 (11734310_a_at) / Fold change /veh CNN1 (11734310_a_at) / RFU VPS37D (11726825_at) / Fold change /veh VPS37D (11726825_at) / RFU C10orf10 (11716522_x_at) / Fold change /veh C10orf10 (11716522_x_at) / RFU KIR2DL2 /// KIR2DL4 /// KIR2DL5A /// KIR2DL5B /// KIR2DS1 /// KIR2DS2 /// KIR2DS3 /// KIR2DS4 /// KIR3DL3 /// KIR3DL3 /// KIR3DS1 (11738374_at) / Fold change /veh KIR2DL2 /// KIR2DL4 /// KIR2DL5A /// KIR2DL5B /// KIR2DS1 /// KIR2DS2 /// KIR2DS3 /// KIR2DS4 /// KIR3DL3 /// KIR3DL3 /// KIR3DS1 (11738374_at) / RFU C1QL1 (11718748_at) / Fold change /veh C1QL1 (11718748_at) / RFU TMPRSS4 (11747572_a_at) / Fold change /veh TMPRSS4 (11747572_a_at) / RFU HAMP (11756126_x_at) / Fold change /veh HAMP (11756126_x_at) / RFU RNFT2 (11725882_a_at) / Fold change /veh RNFT2 (11725882_a_at) / RFU NR4A2 (11747474_a_at) / Fold change /veh NR4A2 (11747474_a_at) / RFU ABCC12 (11746883_a_at) / Fold change /veh ABCC12 (11746883_a_at) / RFU TMEM136 (11760407_x_at) / Fold change /veh TMEM136 (11760407_x_at) / RFU CLDN22 /// WWC2 (11732394_at) / Fold change /veh CLDN22 /// WWC2 (11732394_at) / RFU HLA-DPB1 (11760878_x_at) / Fold change /veh HLA-DPB1 (11760878_x_at) / RFU SPINT1 (11716480_a_at) / Fold change /veh SPINT1 (11716480_a_at) / RFU GAP43 (11754022_s_at) / Fold change /veh GAP43 (11754022_s_at) / RFU A4GNT (11735810_at) / Fold change /veh A4GNT (11735810_at) / RFU PRB3 (11715151_x_at) / Fold change /veh PRB3 (11715151_x_at) / RFU TUBB4B (11761932_at) / Fold change /veh TUBB4B (11761932_at) / RFU CAPN14 (11732068_a_at) / Fold change /veh CAPN14 (11732068_a_at) / RFU TMCC2 (11721928_a_at) / Fold change /veh TMCC2 (11721928_a_at) / RFU IRGQ (11745062_a_at) / Fold change /veh IRGQ (11745062_a_at) / RFU FAM174B (11720279_a_at) / Fold change /veh FAM174B (11720279_a_at) / RFU TMPRSS4 (11748680_a_at) / Fold change /veh TMPRSS4 (11748680_a_at) / RFU FAM212B (11763350_a_at) / Fold change /veh FAM212B (11763350_a_at) / RFU PLEKHG5 (11743358_a_at) / Fold change /veh PLEKHG5 (11743358_a_at) / RFU ZSCAN30 (11745921_a_at) / Fold change /veh ZSCAN30 (11745921_a_at) / RFU CMKLR1 (11741424_a_at) / Fold change /veh CMKLR1 (11741424_a_at) / RFU LOC101060620 /// MAPK8IP1 (11723275_at) / Fold change /veh LOC101060620 /// MAPK8IP1 (11723275_at) / RFU SPTSSB (11747773_x_at) / Fold change /veh SPTSSB (11747773_x_at) / RFU PRSS12 (11739890_at) / Fold change /veh PRSS12 (11739890_at) / RFU BIN1 (11741810_x_at) / Fold change /veh BIN1 (11741810_x_at) / RFU WNT11 (11732464_a_at) / Fold change /veh WNT11 (11732464_a_at) / RFU C10orf10 (11716521_a_at) / Fold change /veh C10orf10 (11716521_a_at) / RFU C5orf56 (11738089_at) / Fold change /veh C5orf56 (11738089_at) / RFU CYB561 (11721691_x_at) / Fold change /veh CYB561 (11721691_x_at) / RFU ANKRD19P (11752326_a_at) / Fold change /veh ANKRD19P (11752326_a_at) / RFU OR2T12 /// OR2T33 /// OR2T8 (11738714_s_at) / Fold change /veh OR2T12 /// OR2T33 /// OR2T8 (11738714_s_at) / RFU VCAN (11748164_a_at) / Fold change /veh VCAN (11748164_a_at) / RFU JSRP1 (11732532_at) / Fold change /veh JSRP1 (11732532_at) / RFU KRTAP10-11 (11738290_x_at) / Fold change /veh KRTAP10-11 (11738290_x_at) / RFU MYO3A (11730013_a_at) / Fold change /veh MYO3A (11730013_a_at) / RFU EBF3 (11725865_a_at) / Fold change /veh EBF3 (11725865_a_at) / RFU CAMK2N1 (11719241_x_at) / Fold change /veh CAMK2N1 (11719241_x_at) / RFU C5orf56 (11738088_a_at) / Fold change /veh C5orf56 (11738088_a_at) / RFU OLFML3 (11715873_a_at) / Fold change /veh OLFML3 (11715873_a_at) / RFU LOC100653217 /// NTM (11731650_a_at) / Fold change /veh LOC100653217 /// NTM (11731650_a_at) / RFU MAPK11 (11762145_a_at) / Fold change /veh MAPK11 (11762145_a_at) / RFU FIZ1 (11724087_x_at) / Fold change /veh FIZ1 (11724087_x_at) / RFU OASL (11726364_x_at) / Fold change /veh OASL (11726364_x_at) / RFU SOX15 (11748057_x_at) / Fold change /veh SOX15 (11748057_x_at) / RFU CD79A (11719716_a_at) / Fold change /veh CD79A (11719716_a_at) / RFU HIST1H1D (11736915_at) / Fold change /veh HIST1H1D (11736915_at) / RFU CASKIN2 (11723855_a_at) / Fold change /veh CASKIN2 (11723855_a_at) / RFU LOC730098 (11760151_x_at) / Fold change /veh LOC730098 (11760151_x_at) / RFU OR4N2 (11742367_at) / Fold change /veh OR4N2 (11742367_at) / RFU PRRT2 (11749266_a_at) / Fold change /veh PRRT2 (11749266_a_at) / RFU SNX32 (11753110_a_at) / Fold change /veh SNX32 (11753110_a_at) / RFU CDHR5 (11726645_a_at) / Fold change /veh CDHR5 (11726645_a_at) / RFU RCAN1 (11760418_a_at) / Fold change /veh RCAN1 (11760418_a_at) / RFU FAM167A (11723789_a_at) / Fold change /veh FAM167A (11723789_a_at) / RFU FAM26E (11764081_at) / Fold change /veh FAM26E (11764081_at) / RFU ISYNA1 (11749810_s_at) / Fold change /veh ISYNA1 (11749810_s_at) / RFU ACY1 (11761880_at) / Fold change /veh ACY1 (11761880_at) / RFU 11764098_at / Fold change /veh 11764098_at / RFU SAMD14 (11745864_x_at) / Fold change /veh SAMD14 (11745864_x_at) / RFU NPB (11741838_a_at) / Fold change /veh NPB (11741838_a_at) / RFU TMPRSS6 (11731388_a_at) / Fold change /veh TMPRSS6 (11731388_a_at) / RFU KRTAP10-2 (11738614_at) / Fold change /veh KRTAP10-2 (11738614_at) / RFU ARHGAP8 /// PRR5-ARHGAP8 (11727945_x_at) / Fold change /veh ARHGAP8 /// PRR5-ARHGAP8 (11727945_x_at) / RFU KRTAP5-7 /// NADSYN1 (11734609_at) / Fold change /veh KRTAP5-7 /// NADSYN1 (11734609_at) / RFU RASL12 (11751679_a_at) / Fold change /veh RASL12 (11751679_a_at) / RFU CDKN2B (11736163_a_at) / Fold change /veh CDKN2B (11736163_a_at) / RFU PRF1 (11729649_at) / Fold change /veh PRF1 (11729649_at) / RFU, ZNF638 /// ZNF638-IT1 / Fold change vs veh, ZNF638 /// ZNF638-IT1 / RFU, PANK3 / Fold change vs veh, PANK3 / RFU, SH3YL1 / Fold change vs veh, SH3YL1 / RFU, ZEB2 / Fold change vs veh, ZEB2 / RFU, NRIP1 / Fold change vs veh, NRIP1 / RFU, PTTG1IP / Fold change vs veh, PTTG1IP / RFU, CAPN2 / Fold change vs veh, CAPN2 / RFU, MED14 / Fold change vs veh, MED14 / RFU, SNORA58 / Fold change vs veh, SNORA58 / RFU, C1orf63 / Fold change vs veh, C1orf63 / RFU, LRRFIP1 / Fold change vs veh, LRRFIP1 / RFU, NDUFAF7 / Fold change vs veh, NDUFAF7 / RFU, SLC12A2 / Fold change vs veh, SLC12A2 / RFU, IBTK / Fold change vs veh, IBTK / RFU, ESF1 / Fold change vs veh, ESF1 / Fold change vs veh, TMEM50B / RFU, TAOK1 / Fold change vs veh, TAOK1 / RFU, ACBD3 / Fold change vs veh, ACBD3 / RFU, TMA16 / Fold change vs veh, TMA16 / RFU, RWDD3 / Fold change vs veh, RWDD3 / RFU, BCAT1 / Fold change vs veh, BCAT1 / RFU, EDEM3 / Fold change vs veh, EDEM3 / RFU, TMEM33 / Fold change vs veh, TMEM33 / RFU, WDR75 / Fold change vs veh, WDR75 / RFU, AHCTF1 / Fold change vs veh, AHCTF1 / RFU, TFRC / Fold change vs veh, TFRC / RFU, ZDHHC17 / Fold change vs veh, ZDHHC17 / RFU, NOM1 / Fold change vs veh, NOM1 / RFU, ARL8B / Fold change vs veh, ARL8B / RFU, ZBTB11 / Fold change vs veh, ZBTB11 / RFU, TAMM41 / Fold change vs veh, TAMM41 / RFU, KIAA1704 /// LOC100996395 / Fold change vs veh, KIAA1704 /// LOC100996395 / RFU, ING1 / Fold change vs veh, ING1 / RFU, TRMT61B / Fold change vs veh, TRMT61B / RFU, FUBP3 / Fold change vs veh, FUBP3 / RFU, TP53 / Fold change vs veh, TP53 / RFU, TNKS2 / Fold change vs veh, TNKS2 / RFU, ZFP14 / Fold change vs veh, ZFP14 / RFU, ACTR2 / Fold change vs veh, ACTR2 / RFU, PPP3R1 / Fold change vs veh, PPP3R1 / RFU, PIK3R1 / Fold change vs veh, PIK3R1 / RFU, HNRNPA1 / Fold change vs veh, HNRNPA1 / RFU, RNF170 / Fold change vs veh, RNF170 / RFU, ZNF28 / Fold change vs veh, ZNF28 / RFU, RNGTT / Fold change vs veh, RNGTT / RFU, OGT / Fold change vs veh, OGT / RFU, BRD1 / Fold change vs veh, BRD1 / RFU, MARS / Fold change vs veh, MARS / RFU, ZNF655 / Fold change vs veh, ZNF655 / RFU, FAHD1 / Fold change vs veh, FAHD1 / RFU, BDP1 / Fold change vs veh, BDP1 / RFU, LRRCC1 / Fold change vs veh, LRRCC1 / RFU, ARID1A / Fold change vs veh, ARID1A / RFU, ZNF146 / Fold change vs veh, ZNF146 / RFU, ZNF330 / Fold change vs veh, ZNF330 / RFU, GPN3 / Fold change vs veh, GPN3 / RFU, C9orf123 / Fold change vs veh, C9orf123 / RFU, N4BP2L2 / Fold change vs veh, N4BP2L2 / RFU, ARFIP1 / Fold change vs veh, ARFIP1 / RFU, FAM179B / Fold change vs veh, FAM179B / RFU, BCL10 / Fold change vs veh, BCL10 / RFU, UHRF1BP1L / Fold change vs veh, UHRF1BP1L / RFU, BET1 / Fold change vs veh, BET1 / RFU, CNOT2 / Fold change vs veh, CNOT2 / RFU, ZNF268 / Fold change vs veh, ZNF268 / Fold change vs veh, ZNF507 / RFU, DGCR2 / Fold change vs veh, DGCR2 / RFU, WDSUB1 / Fold change vs veh, WDSUB1 / Fold change vs veh, HSP90B1 /// MIR3652 / RFU, ADSS / Fold change vs veh, ADSS / RFU, GK / Fold change vs veh, GK / RFU, ZNF148 / Fold change vs veh, ZNF148 / RFU, TAF9 / Fold change vs veh, TAF9 / RFU, SLC1A5 / Fold change vs veh, SLC1A5 / RFU, SLMO2 / Fold change vs veh, SLMO2 / RFU, ABCC4 / Fold change vs veh, ABCC4 / RFU, LOC101060439 /// RAP1B / Fold change vs veh, LOC101060439 /// RAP1B / RFU, RFX7 / Fold change vs veh, RFX7 / RFU, GTPBP10 / Fold change vs veh, GTPBP10 / RFU, CNEP1R1 / Fold change vs veh, CNEP1R1 / RFU, BIVM-ERCC5 /// ERCC5 / Fold change vs veh, BIVM-ERCC5 /// ERCC5 / RFU, ILF3 / Fold change vs veh, ILF3 / RFU 11762660_at / Fold change /veh 11762660_at / RFU VCAN (11757783_s_at) / Fold change /veh VCAN (11757783_s_at) / RFU DDX43 (11728927_at) / Fold change /veh DDX43 (11728927_at) / RFU KRT8 (11758188_x_at) / Fold change /veh KRT8 (11758188_x_at) / RFU NKD1 (11759106_at) / Fold change /veh NKD1 (11759106_at) / RFU SRD5A1 (11742802_a_at) / Fold change /veh SRD5A1 (11742802_a_at) / RFU TPSAB1 /// TPSB2 (11721975_s_at) / Fold change /veh TPSAB1 /// TPSB2 (11721975_s_at) / RFU GSTM3 (11746129_a_at) / Fold change /veh GSTM3 (11746129_a_at) / RFU IL23R (11737362_x_at) / Fold change /veh IL23R (11737362_x_at) / RFU TMEM51 (11727254_a_at) / Fold change /veh TMEM51 (11727254_a_at) / RFU PIWIL2 (11732686_x_at) / Fold change /veh PIWIL2 (11732686_x_at) / RFU ORM1 (11744905_x_at) / Fold change /veh ORM1 (11744905_x_at) / RFU CCDC152 (11743942_at) / Fold change /veh CCDC152 (11743942_at) / RFU ECM1 (11717891_a_at) / Fold change /veh ECM1 (11717891_a_at) / RFU IL23R (11748794_a_at) / Fold change /veh IL23R (11748794_a_at) / RFU TNFAIP8L3 (11732012_x_at) / Fold change /veh TNFAIP8L3 (11732012_x_at) / RFU MBOAT4 (11741988_at) / Fold change /veh MBOAT4 (11741988_at) / RFU 11764193_at / Fold change /veh 11764193_at / RFU TMEM53 (11763286_at) / Fold change /veh TMEM53 (11763286_at) / RFU MAGEB2 (11727129_at) / Fold change /veh MAGEB2 (11727129_at) / RFU TMEM200A (11744735_a_at) / Fold change /veh TMEM200A (11744735_a_at) / RFU CCDC152 (11751479_a_at) / Fold change /veh CCDC152 (11751479_a_at) / RFU FAM211A (11726209_a_at) / Fold change /veh FAM211A (11726209_a_at) / RFU RGS16 (11746705_a_at) / Fold change /veh RGS16 (11746705_a_at) / RFU VCAN (11755009_s_at) / Fold change /veh VCAN (11755009_s_at) / RFU RHOB (11743442_s_at) / Fold change /veh RHOB (11743442_s_at) / RFU RGS16 (11720943_a_at) / Fold change /veh RGS16 (11720943_a_at) / RFU RGS16 (11720944_at) / Fold change /veh RGS16 (11720944_at) / RFU, VPS4B / Fold change vs veh, VPS4B / RFU, CREB1 / Fold change vs veh, CREB1 / RFU, DNAJC13 / Fold change vs veh, DNAJC13 / RFU, GNAQ / Fold change vs veh, GNAQ / RFU, CDK5R1 / Fold change vs veh, CDK5R1 / RFU, ZRANB3 / Fold change vs veh, ZRANB3 / RFU, CUL4A / Fold change vs veh, CUL4A / RFU, CCNY / Fold change vs veh, CCNY / RFU, UFL1 / Fold change vs veh, UFL1 / RFU, COG3 / Fold change vs veh, COG3 / RFU, DIAPH2 / Fold change vs veh, DIAPH2 / RFU, SKA2 / Fold change vs veh, SKA2 / RFU, AFF3 / Fold change vs veh, AFF3 / RFU, LMF1 / Fold change vs veh, LMF1 / RFU, IPO11 / Fold change vs veh, IPO11 / RFU, DFFB / Fold change vs veh, DFFB / RFU, FOXP1 / Fold change vs veh, FOXP1 / RFU, CARD8 / Fold change vs veh, CARD8 / RFU, STRN3 / Fold change vs veh, STRN3 / RFU, ADK / Fold change vs veh, ADK / RFU, RASSF2 / Fold change vs veh, RASSF2 / RFU, WIPF1 / Fold change vs veh, WIPF1 / RFU, LARP1B / Fold change vs veh, LARP1B / RFU, RASA1 / Fold change vs veh, RASA1 / RFU, RB1 / Fold change vs veh, RB1 / RFU, PPFIA1 / Fold change vs veh, PPFIA1 / RFU, MAT2A / Fold change vs veh, MAT2A / RFU, CCT5 / Fold change vs veh, CCT5 / RFU, WDR92 / Fold change vs veh, WDR92 / RFU, CUX1 / Fold change vs veh, CUX1 / RFU, TTC7A / Fold change vs veh, TTC7A / RFU, TMEM135 / Fold change vs veh, TMEM135 / RFU, DEPTOR / Fold change vs veh, DEPTOR / RFU, CPM / Fold change vs veh, CPM / RFU, DNAJB6 / Fold change vs veh, DNAJB6 / RFU, CACNA2D3 / Fold change vs veh, CACNA2D3 / RFU, DTX4 / Fold change vs veh, DTX4 / RFU, TFCP2 / Fold change vs veh, TFCP2 / RFU, GMCL1 /// GMCL1P1 / Fold change vs veh, GMCL1 /// GMCL1P1 / RFU, AEBP2 / Fold change vs veh, AEBP2 / RFU, SNHG1 /// SNORD22 /// SNORD25 /// SNORD26 /// SNORD27 /// SNORD28 /// SNORD29 /// SNORD31 / Fold change vs veh, SNHG1 /// SNORD22 /// SNORD25 /// SNORD26 /// SNORD27 /// SNORD28 /// SNORD29 /// SNORD31 / Fold change (Aza/veh), C12orf56 (ProbeSet 11735607_a_at) / Fold change (ACY-1035/veh), C12orf56 (ProbeSet 11735607_a_at) / Fold change (Aza/veh), FGFR1OP (ProbeSet 11751329_s_at) / Fold change (ACY-1035/veh), FGFR1OP (ProbeSet 11751329_s_at) / Fold change (Aza/veh), VPS36 (ProbeSet 11739960_a_at) / Fold change (ACY-1035/veh), VPS36 (ProbeSet 11739960_a_at) / RFU SYPL1 (11715823_x_at) / Fold change /veh SYPL1 (11715823_x_at) / RFU IGFBP7 (11715501_s_at) / Fold change /veh IGFBP7 (11715501_s_at) / RFU REEP3 (11722064_at) / Fold change /veh REEP3 (11722064_at) / RFU IGLL1 (11728026_x_at) / Fold change /veh IGLL1 (11728026_x_at): dose or concentration left out as unconfirmed
Details: MV-4-11 cells, 48 hours

With `Nc1ncn([C@@H]2O[C@H](CO)[C@@H](O)[C@H]2O)c(=O)n1` [azacitidine] the “Fold change /veh C5orf56 (11738088_a_at)” value was 0.98.
